Test results reported in publication PMC5071857, “A unique peptide deformylase platform to rationally design and challenge novel active compounds” (Scientific Reports, 2016).
Like-named read-outs stand apart in the source and are kept apart here.

Experiments:
E. coli AG100 = assay: MIC by microdilution, E. coli AG100; format: cell-based; details: 18 h at 37 °C, average of three assays; for MIC: Escherichia coli, AG100, without PMBN; for MIC AG100: with PMBN at 1/5 of its MIC
From the text: (§1) Two E. coli strains, one B. subtilis strain, one S. aureus strain, one E. faecalis strain, one S. agalactiae strain and three Enterobacter aerogenes strains previously described were used. Briefly, AG100 was an E. coli wild type strain and AG100A its acrAB^- derivative. EA289 was a Kan^s derivative of an E. aerogenes multi-drug resistant (MDR) clinical isolate overexpressing AcrAB-TolC efflux pumps, and EA294 and EA298 its acrAB^- and tolC^- derivatives respectively. Strains were routinely grown at 37 °C on Luria-Bertani (LB) agar or in Mueller-Hinton II broth (MH), supplemented with kanamycine (50 μg.mL^−1) for AG100A, EA294 and EA298.
(§2) MIC values of antibiotics were determined by the microdilution method in liquid MH media in microplates in the absence or presence of chemosensitizers/modulators (e.g. PMBN, PAβN), as previously described. Permeabilization, blocking of efflux pumps, and isolates with different levels of porin or efflux expression were used to assess the involvement of the membrane barrier in antibiotic activity.
(§3) Susceptibilities were determined in 96-wells microplates with an inoculum of 2 × 10^5 cfu in 200 μL of MH broth containing two-fold serial dilutions of each antibiotics or compounds. Molecules were tested alone or in combination with other molecules in equimolar ratio. MICs were realized in the absence and in the presence of a membrane permeabilizer, the polymyxine B nonapeptide (PMBN) used at 51.2 mg/L (1/5 or 1/10 of its direct MIC previously determined). Actinonin and ciprofloxacin were used as internal antibiotic reference. […] Each test was systematically performed in triplicate. The average of three independent assays is presented in μg/mL in the respective tables.

EcPDF = target: T1, EcPDF (Escherichia coli, UniProt P0A6K3); assay: PDF inhibition, formate dehydrogenase-coupled spectrophotometric assay (EcPDF); format: biochemical; details: for EcPDF KI/KI*app: enhancement potency (slow tight-binding)
T1 construct: made in house
Experimental: (§4) The formate released by the deformylation reaction is used by FDH to convert NAD in NADH, the production of which being measured over time at 340 nm and controlled temperature (37 °C). The 200 μL reaction mixture contained 50 mM HEPES-NaOH pH7.5, 12 mM NAD^+, 4.5 U/mL FDH, 1 mM NiCl2 and PDF enzyme (either 40 nM SaPDF or 10 nM EcPDF or 100 nM AtPDF1B) previously diluted in presence of 0.1 mg/mL BSA. The reaction was started by addition of 1–6 mM Fo-Met-Ala-Ser. Kinetics parameters (kcat, Km) were derived from iterative non-linear least square fits using the Michaelis-menten equation based on the experimental data (Sigma-Plot, Kinetics module).
(§5) 1/KI*app is the slope of the v0/vi curve in function of compound concentration, where v0 and vi are the initial reaction rates in absence and presence of compound, respectively.
(§6) Determination of KI values was performed with a slightly modified protocol: reaction was started by addition of enzyme instead of Fo-Met-Ala-Ser, the latter being directly added to the mixture containing increasing concentrations of each compound. No pre-incubation of enzyme in presence of compound was done. 1/KI is the slope of the v0/vi curve in function of compound concentration, where v0 and vi are the initial reaction rates in absence and presence of compound respectively.

E. faecalis EFA 103.214 = assay: MIC, E. faecalis EFA 103.214; format: cell-based
From the text: as §1, §2, §3

SaPDF [1] = target: T2, SaPDF (Streptococcus agalactiae serotype III, UniProt Q8E378, S2A); assay: biochemical; details: for Ki: SaPDF KI, no pre-incubation, assay initiated by addition of enzyme, 40 nM SaPDF, 37 °C; for SaPDF KI/KI*app: enhancement potency (slow tight-binding)
T2 construct: the recombinant protein contains all residues of the 204 amino acids mature protein; made in house; host or cells: E. coli Rosetta 2(DE3)pLysS
Experimental: as §4, with “Enzymatic activity was measured by a spectrophotometric assay where peptide deformylase activity is coupled to that of formate dehydrogenase. The formate” for “The formate”
as §5, §6

[2] = tested on: E. aerogenes Ea289, MDR strain; assay: MIC by microdilution, E. aerogenes Ea289; format: cell-based, Enterobacter aerogenes; details: for MIC Ea289: +PMBN at 1/5 of its MIC, average of three assays; for MIC: Klebsiella aerogenes, 18 h, read-out: MIC Ea289
From the text: as §1, §2, §3

AtPDF1B = target: T3, AtPDF1B (Arabidopsis thaliana, UniProt Q9FUZ2); assay: PDF inhibition, formate dehydrogenase-coupled spectrophotometric assay (AtPDF1B); format: biochemical; details: 100 nM AtPDF1B; for IC50: 2 mM Fo-Met-Ala-Ser, 10 min pre-incubation at 37 °C; for Ki: PDFI pre-incubated with enzyme 10 min at 37 °C, read-out: AtPDF1B KI*app
T3 construct: made in house
T3 sequence (Q9FUZ2 83-273): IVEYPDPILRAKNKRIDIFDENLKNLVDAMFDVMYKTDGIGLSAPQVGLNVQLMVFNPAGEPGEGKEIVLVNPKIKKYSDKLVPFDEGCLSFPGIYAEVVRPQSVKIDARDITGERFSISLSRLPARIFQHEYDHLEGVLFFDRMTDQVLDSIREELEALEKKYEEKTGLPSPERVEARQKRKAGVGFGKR
Experimental: as §4, with “Enzymatic activity was measured by a spectrophotometric assay where peptide deformylase activity is coupled to that of formate dehydrogenase. The formate” for “The formate”
as §5, §6

[3] = tested on: E. aerogenes Ea294, Ea289 derivative AcrAB-; assay: MIC by microdilution, E. aerogenes Ea294; format: cell-based, Enterobacter aerogenes; details: for MIC Ea294: +PMBN at 1/5 of its MIC, average of three assays; for MIC: Klebsiella aerogenes, 18 h, read-out: MIC Ea294
From the text: as §1, §2, §3

S. aureus SA113 = assay: MIC, S. aureus SA113; format: cell-based; details: Staphylococcus aureus
From the text: as §1, §2, §3

SaPDF [4] = target: T2, SaPDF; assay: biochemical; details: SaPDF KI*app, PDFI pre-incubated with enzyme 10 min at 37 °C, started by 2 mM Fo-Met-Ala-Ser; 40 nM SaPDF
[5] = tested on: E. coli AG100A (AcrAB- derivative); assay: MIC by microdilution, E. coli AG100A; format: cell-based; details: for MIC: Escherichia coli, 18 h, read-out: MIC AG100A; for MIC AG100A: with PMBN at 1/5 of its MIC, 18 h at 37 °C, average of three assays
From the text: as §1, §2, §3

[6] = tested on: E. aerogenes Ea298, Ea289 derivative tolC-; assay: MIC by microdilution, E. aerogenes Ea298; format: cell-based, Enterobacter aerogenes; details: for MIC Ea298: +PMBN at 1/5 of its MIC, average of three assays; for MIC: Klebsiella aerogenes, 18 h, read-out: MIC Ea298
From the text: as §1, §2, §3

[7] = EcPDF KI*app, PDFI pre-incubated with enzyme 10 min at 37 °C, started by 2 mM Fo-Met-Ala-Ser, 10 nM EcPDF
[8] = Enterococcus faecalis, EFA103.214, read-out: MIC E. faecalis EFA 103.214
[9] = 10 nM EcPDF, 2 mM Fo-Met-Ala-Ser, 10 min pre-incubation at 37 °C, read-out: IC50 EcPDF
[10] = PDFI pre-incubated with enzyme 10 min at 37 °C, started by 2 mM Fo-Met-Ala-Ser, 10 nM EcPDF, read-out: EcPDF KI*app

T2 sequence (Q8E378 whole entry S2A): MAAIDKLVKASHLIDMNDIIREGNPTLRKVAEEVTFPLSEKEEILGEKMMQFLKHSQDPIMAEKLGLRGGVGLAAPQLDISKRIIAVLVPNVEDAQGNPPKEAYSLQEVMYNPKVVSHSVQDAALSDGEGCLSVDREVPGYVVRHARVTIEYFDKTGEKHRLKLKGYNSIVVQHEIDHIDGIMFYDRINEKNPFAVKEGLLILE
T1 sequence (P0A6K3 whole entry): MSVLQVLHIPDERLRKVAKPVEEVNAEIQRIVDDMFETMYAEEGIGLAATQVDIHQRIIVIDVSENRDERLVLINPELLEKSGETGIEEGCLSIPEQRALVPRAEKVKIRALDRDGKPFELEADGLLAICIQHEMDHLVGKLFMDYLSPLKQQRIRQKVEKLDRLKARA

Compound | MIC (E. coli AG100) [µg/mL] | MIC AG100 (E. coli AG100) [µg/mL] | IC50 (EcPDF) [nM] | Ki (EcPDF; [7]) [nM] | MIC (E. faecalis EFA 103.214; [8]) [µg/mL] | IC50 (SaPDF [1]) [nM] | MIC Ea289 [2] [µg/mL] | MIC [2] [µg/mL] | IC50 (AtPDF1B) [nM] | MIC Ea294 [3] [µg/mL] | MIC [3] [µg/mL] | MIC (S. aureus SA113) [µg/mL] | Ki (SaPDF [4]) [nM] | MIC [5] [µg/mL] | MIC AG100A [5] [µg/mL] | MIC Ea298 [6] [µg/mL] | MIC [6] [µg/mL] | IC50 (EcPDF; [9]) [nM] | other results
CCCC[C@H](CC(=O)NO)c1nc(Cc2ccc(OC(F)(F)F)cc2)no1 [AT013] | > 64 | 16 | 78 ± 11 | 80 ± 10 | > 64 | 11 ± 1 | 64 | > 128 | 500 ± 15 | 16 | > 128 | > 64 | 51 ± 3 | 32 | 4 | 16 | 128 | – | Ki (EcPDF; EcPDF KI, no pre-incubation, assay initiated by addition of enzyme, 10 nM EcPDF, 37 °C): 73 ± 12 nM; EcPDF KI/KI*app (EcPDF): 1; Ki (SaPDF [1]): 70 ± 5 nM; SaPDF KI/KI*app (SaPDF [1]): 1; Ki (AtPDF1B; started by 2 mM Fo-Met-Ala-Ser): 303 ± 12 nM
CCCC[C@H](CC(=O)NO)c1nc(Cc2ccc(C(=O)O)cc2)no1 [AT021] | – | – | 75 ± 2 | 76 ± 5 | – | 211 ± 10 | – | – | 8200 ± 1000 | – | – | – | 200 ± 10 | – | – | – | – | – | Ki (AtPDF1B): ~10000 nM
CCCC[C@H](CC(=O)NO)c1nc(-c2ccccc2)co1 [AT003] | > 64 | 64 | – | – | > 64 | – | – | – | – | – | – | > 64 | – | > 64 | 16 | – | – | 190 | –
CCCCC(CC(=O)NO)c1nc(Cc2ccc(C)cc2)no1 (centres unmarked) [AT012] | > 64 | 32 | 27 ± 3 | 70 ± 8 | > 64 | 67 ± 5 | – | – | 460 ± 22 | – | – | > 64 | 400 ± 35 | 64 | 8 | – | – | – | Ki (AtPDF1B; started by 2 mM Fo-Met-Ala-Ser): 625 ± 30 nM
CCCCC(CC(=O)NO)c1nc(Cc2ccc(-c3ccccc3)cc2)no1 (centres unmarked) [AT014] | > 64 | 64 | 25 ± 4 | 66 ± 3 | > 64 | 16 ± 2 | – | – | 550 ± 25 | – | – | > 64 | 65 ± 10 | > 64 | 64 | – | – | – | Ki (SaPDF [1]): 84 ± 6 nM; SaPDF KI/KI*app (SaPDF [1]): 1; Ki (AtPDF1B; started by 2 mM Fo-Met-Ala-Ser): 909 ± 32 nM
CCCCC(CC(=O)NO)c1nc(Cc2nc3ccccc3s2)no1 (centres unmarked) [AT017] | > 64 | 64 | – | – | > 64 | 23 ± 4 | – | – | – | – | – | > 64 | 85 ± 8 | 64 | 8 | – | – | 30 ± 8 | Ki (EcPDF; [10]): 41 ± 3 nM
CCCCC(CC(=O)NO)c1nc(-c2ccc([N+](=O)[O-])cc2)no1 (centres unmarked) [AT001] | > 64 | >64 | – | – | – | – | – | – | – | – | – | – | – | > 64 | 32 | – | – | 160 | –
CCCCC(CC(=O)NO)c1nc(Cc2ccc3c(c2)OCO3)no1 (centres unmarked) [AT016] | > 64 | 64 | – | – | – | 10 ± 2 | – | – | – | – | – | > 64 | 55 ± 5 | 64 | 8 | – | – | 10 ± 1 | Ki (EcPDF; [10]): 26 ± 5 nM; EcPDF KI/KI*app (EcPDF): 1; Ki (EcPDF; no pre-incubation, assay initiated by addition of enzyme, 10 nM EcPDF, 37 °C, read-out: EcPDF KI): 25 ± 3 nM; MIC (E. faecalis EFA 103.214; Enterococcus faecalis, EFA103.214; read-out: MIC E. faecalis EFA 103.214): > 64 µg/mL; Ki (SaPDF [1]): 67 ± 7 nM; SaPDF KI/KI*app (SaPDF [1]): 1
O=C(N[C@H](CO)[C@H](O)c1ccc([N+](=O)[O-])cc1)C(Cl)Cl [Chloramphenicol, chloramphenicol, reference compound] | – | – | – | – | – | – | 8 | > 128 | – | 4 | 32 | – | – | – | – | 4 | 32 | – | –
CCCCC(CC(=O)NO)c1nc(C(=O)OCC)co1 (centres unmarked) [AT004] | > 64 | >64 | – | – | > 64 | – | – | – | – | – | – | > 64 | – | > 64 | 32 | – | – | 110 | –
CC(C)(O/N=C(\C(=O)N[C@@H]1C(=O)N2C(C(=O)[O-])=C(C[n+]3ccccc3)CS[C@H]12)c1csc(N)n1)C(=O)O [Ceftazidim, ceftazidime, reference compound] | – | – | – | – | – | – | 64 | > 128 | – | 64 | > 128 | – | – | – | – | 64 | > 128 | – | –
CCCCC(CC(=O)NO)c1nc(-c2ccccc2)no1 (centres unmarked) [AT006] | > 64 | 64 | – | – | > 64 | – | – | – | – | – | – | > 64 | – | > 64 | 32 | – | – | 155 | –
O=C(O)c1cn(C2CC2)c2cc(N3CCNCC3)c(F)cc2c1=O [Ciprofloxacin, ciprofloxacin, reference compound] | – | – | – | – | – | – | 64 | 64 | – | 8 | 16 | – | – | – | – | 4 | 8 | – | –
